Results taken from patent US20160193216A1 (Nimbus Iris, Inc., priority 2012, published 2016).
Structures can show the parent of a compound that is named as a salt. Where two headings read alike, the source gives them in different places.

Legend:
THP-1 cells = assay: LPS induced cytokine (TNFα and IL8) production assay in THP-1 cells; format: cell-based; conditions: Homo sapiens, 300 ng/mL LPS
Description: Cytokine Production Assay
Provided compounds were also assayed in an LPS (Lipopolysacharide) or R848 (TLR-7 agonist) induced cytokine (TNFα and IL8) production assay in THP-1 cells, human peripheral blood mononuclear cells (hPBMC), and whole blood. The exemplary protocol for this assay in THP-1 cells was as follows below.
THP-1 cells from ATCC (TIB-202) were cultured in RPMI Medium 1640 (Invitrogen, Cat No. A10491-01), 10% fetal bovine serum (Invitrogen, Cat No. 10099141, Lot No. 8172882) containing 100 U/mL Penicillin, 100 μg/mL streptomycin (Invitrogen, Cat No. 15140-122), and 50 uM 2-Mercaptoethanol (Invitrogen, Cat No. 21985023). LPS-EK ultra pure (Invivogen, Cat No. tlrl-peklps) was used to induce IL8 and TNFα production, that was detected in the cell culture supernatant by IL8 HTRF kit (Cisbio, Cat No. 62IL8PEB) and TNFα HTRF kit (Cisbio, Cat No. 62TNFPEB), as per manufacturer instructions. Cells were cultured in 96 well assay plates at 100,000 cells per well, and compounds diluted in final 0.3% DMSO were pre-incubated with cells for 1 hour prior to stimulation with 300 ng/mL LPS. Cytokine production in cell supernatant was measured at 5 hours for TNFα and IL8 production, and for 16 hours for IL8 production and assessment of cell viability.
The compound numbers correspond to the compound numbers in Table 1. […] “NA” stands for “not assayed.”

IRAK4 = target: T1, IRAK4 (Homo sapiens, UniProt Q9NWZ3); assay: IRAK-4 activity inhibition assay (Caliper); format: biochemical; conditions: 37 μM ATP, 3.5 nM IRAK4
T1 sequence (Q9NWZ3 1-460): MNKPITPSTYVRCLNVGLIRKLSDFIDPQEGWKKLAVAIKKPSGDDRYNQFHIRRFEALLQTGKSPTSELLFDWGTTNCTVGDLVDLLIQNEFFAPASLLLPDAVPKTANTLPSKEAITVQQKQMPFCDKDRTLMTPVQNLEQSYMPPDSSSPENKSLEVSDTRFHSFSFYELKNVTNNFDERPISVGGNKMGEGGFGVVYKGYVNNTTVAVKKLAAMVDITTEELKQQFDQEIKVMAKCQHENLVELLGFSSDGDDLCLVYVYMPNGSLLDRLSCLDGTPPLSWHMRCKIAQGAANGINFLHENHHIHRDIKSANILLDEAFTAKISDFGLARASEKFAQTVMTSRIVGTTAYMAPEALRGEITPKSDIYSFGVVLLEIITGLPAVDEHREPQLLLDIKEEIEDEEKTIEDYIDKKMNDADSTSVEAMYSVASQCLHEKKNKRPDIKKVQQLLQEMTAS

Row | IC50 (THP-1 cells; read-out: IL8 production IC50) [nM] | IC50 (THP-1 cells; read-out: TNFα production IC50) [nM] | IC50 (IRAK4) [nM] | Structure (SMILES)
1 |  | 1000 to 5000 | < 5000 | CN(CC(=O)N1CCCC1)[C@H]1CC[C@H](Oc2ncnc3sc4c(c23)[C@@H](CCO)CC4)CC1 [Compound I-90, 2-(((1R,4r)-4-(((R)-5-(2-hydroxyethyl)-6,7-dihydro-5H-cyclopenta[4,5]thieno[2,3-d]pyrimidin-4-yl)oxy)cyclohexyl)(methyl)amino)-1-(pyrrolidin-1-yl)ethanone]
2 | 1000 to 5000 | 1000 to 5000 | < 5000 | CN(CC(=O)N1CCCC1)[C@H]1CC[C@H](Oc2ncnc3sc4c(c23)[C@@H](C[C@H](O)C(N)=O)CC4)CC1 [Compound I-149, (2S)-2-hydroxy-3-[(3R)-12-[(4-[methyl[2-oxo-2-(pyrrolidin-1-yl)ethyl]amino]cyclohexyl)oxy]-7-thia-9,11-diazatricyclo[6.4.0.0̂[2,6]]dodeca-1(8),2(6),9,11-tetraen-3-yl]propanamide]
3 | 500 to 1000 | 500 to 1000 | < 5000 | NC(=O)[C@@H](O)C[C@H]1CCc2sc3ncnc(O[C@H]4CC[C@H](N)CC4)c3c21 [Compound I-135, (S)-3-((R)-4-(((1r,4R)-4-aminocyclohexyl)oxy)-6,7-dihydro-5H-cyclopenta[4,5]thieno[2,3-d]pyrimidin-5-yl)-2-hydroxypropanamide]
4 | 500 to 1000 | 500 to 1000 | < 5000 | CC[C@@H](O)C[C@H]1CCc2sc3ncnc(O[C@H]4CC[C@H](N(C)C)CC4)c3c21 [Compound I-106]
5 | 1000 to 5000 | ≥ 5000 | < 5000 | CN(C)[C@H]1CC[C@H](Nc2ncnc3sc4c(c23)CC(C)(C)OC4)CC1 [Compound I-194, 4-N-[12, 12-dimethyl-11-oxa-8-thia-4,6-diazatricyclo[7.4.0.0[2,7]]trideca-1(9),2(7),3,5-tetraen-3-yl]-1-N, 1-N-dimethylcyclohexane-1,4-diamine]
6 |  | 500 to 1000 | < 5000 | C[C@H](O)C[C@H]1CCc2sc3ncnc(O[C@H]4CC[C@H](N5CCOCC5)CC4)c3c21 [Compound I-83, (S)-1-((R)-4-(((1 r,4R)-4-morpholinocyclohexyl)oxy)-6,7-dihydro-5H-cyclopenta[4,5]thieno[2,3-d]pyrimidin-5-yl)propan-2-ol]
7 | ≤ 500 | ≤ 500 | < 5000 | NC(=O)[C@@H](O)C[C@H]1CCc2sc3ncnc(O[C@H]4CC[C@H](N5CCCCC5)CC4)c3c21 [Compound I-217, (S)-2-hydroxy-3-((R)-4-(((1r,4R)-4-(piperidin-1-yl)cyclohexyl)oxy)-6,7-dihydro-5H-cyclopenta[4,5]thieno[2,3-d]pyrimidin-5-yl)propanamide]

The next lines start with the molecule.

Row | Structure (SMILES) | IC50 (THP-1 cells; read-out: IL8 production IC50) [nM] | IC50 (THP-1 cells; read-out: TNFα production IC50) [nM] | IC50 (IRAK4) [nM]
8 | CN(C)[C@H]1CC[C@H](Oc2ncnc3sc4c(c23)[C@@H](CCC(N)=O)CC4)CC1 [Compound I-44, 3-[(3S)-12-[[4-(dimethylamino)cyclohexyl]oxy]-7-thia-9,11-diazatricyclo[6.4.0.0[2,6]]dodeca-1(8),2(6),9,11-tetraen-3-yl]propanamide] | 1000 to 5000 | 500 to 1000 | < 5000
9 | [2H]C1([2H])c2sc3ncnc(O[C@H]4CC[C@H](N5CCOCC5)CC4)c3c2[C@@H](CC(N)=O)C1([2H])[2H] [Compound I-188, 2-[(3R)-12-[[4-(morpholin-4-yl)cyclohexyl]oxy](4,4,5,5-d4)-7-thia-9, 11-diazatricyclo[6.4.0.0[2,6]]dodeca-1(8),2(6),9, 11-tetraen-3-yl]acetamide-d4] | ≤ 500 | 500 to 1000 | < 5000
10 | CC[C@@H](O)C[C@H]1CCc2sc3ncnc(O[C@H]4CC[C@H](N5CCOCC5)CC4)c3c21 [Compound I-65, (R)-1-((R)-4-(((1r,4R)-4-morpholinocyclohexyl)oxy)-6,7-dihydro-5H-cyclopent[4,5]thieno[2,3-d]pyrimidin-5-yl)butan-2-ol] | 1000 to 5000 | 500 to 1000 | < 5000
11 | OC[C@@H]1CCc2sc3ncnc(O[C@H]4CC[C@H](N5CCOCC5)CC4)c3c2C1 [Compound I-215, [(12R)-3-[[4-(morpholin-4-yl)cyclohexyl]oxy]-8-thia-4,6-diazatricyclo[7.4.0.0[2,7]]trideca-1(9),2(7),3,5-tetraen-12-yl]methanol] | 1000 to 5000 | 500 to 1000 | < 5000
12 | CN(C)[C@H]1CC[C@H](Oc2ncnc3sc4c(c23)[C@@H](CC(O)C(N)=O)CC4)CC1 (stereo partly drawn) [Compound I-57, 3-[(3R)-12-[[4-(dimethylamino)cyclohexyl]oxy]-7-thia-9,11-diazatricyclo[6.4.0.0[2,6]]dodeca-1(8),2(6),9,11-tetraen-3-yl]-2-hydroxypropanamide] | ≤ 500 | ≤ 500 | < 5000
13 | CN(C)[C@H]1CC[C@H](Oc2ncnc3sc4c(c23)[C@@H](CC(C#N)C(N)=O)CC4)CC1 (mixture of isomers) [Compound I-51, 2-cyano-3-(12-[[4-(dimethylamino)cyclohexyl]oxy]-7-thia-9,11-diazatricyclo[6.4.0.0[2,6]]dodeca-1(12),2(6),8,10-tetraen-3-yl)propanamide] | 500 to 1000 | 500 to 1000 | < 5000
14 | CN(C)[C@H]1CC[C@H](Oc2ncnc3sc4c(c23)[C@@H](CCO)CC4)CC1 [Compound I-34, 2-[(3R)-12-[[4-(dimethylamino)cyclohexyl]oxy]-7-thia-9,11-diazatricyclo[6.4.0.0[2,6]]dodeca-1(12),2(6),8,10-tetraen-3-yl]ethan-1-ol] | 1000 to 5000 | 1000 to 5000 | < 5000
15 | NC(=O)[C@H](O)C[C@H]1CCc2sc3ncnc(O[C@H]4CC[C@H](N5CCCC5)CC4)c3c21 [Compound I-228, (R)-2-hydroxy-3-((R)-4-(((1r,4R)-4-(pyrrolidin-1-yl)cyclohexyl)oxy)-6,7-dihydro-5H-cyclopenta[4,5]thieno[2,3-d]pyrimidin-5-yl)propanamide] | ≤ 500 | ≤ 500 | < 5000
16 | CN(C)[C@H]1CC[C@H](Oc2ncnc3sc4c(c23)[C@@H](CC(F)(F)C(N)=O)CC4)CC1 [Compound I-144, 3-[(3R)-12-[[4-(dimethylamino)cyclohexyl]oxy]-7-thia-9,11-diazatricyclo[6.4.0.0[2,6]]dodeca-1(8),2(6),9,11-tetraen-3-yl]-2,2-difluoropropanamide] | ≤ 500 | ≤ 500 | < 5000
17 | CN(C)[C@H]1CC[C@H](Oc2ncnc3sc4c(c23)CC(CCO)CC4)CC1 (stereo partly drawn) [Compound I-108, 2-[3-[[4-(dimethylamino)cyclohexyl]oxy]-8-thia-4,6-diazatricyclo[7.4.0.0[2,7]]trideca-1(9),2(7),3,5-tetraen-12-yl]ethan-1-ol formate] |  | 1000 to 5000 | < 5000
18 | NC(=O)C[C@H]1CCc2sc3ncnc(O[C@H]4CC[C@H](N5CCC(F)(F)CC5)CC4)c3c21 [Compound I-229, 2-[(3R)-12-[[4-(4,4-difluoropiperidin-1-yl)cyclohexyl]oxy]-7-thia-9,11-diazatricyclo[6.4.0.0[2,6]]dodeca-1(8),2(6),9, 11-tetraen-3-yl]acetamide] | 500 to 1000 | ≤ 500 | < 5000
19 | NC(=O)[C@H]1CCc2sc3ncnc(N[C@H]4CC[C@H](N5CCOCC5)CC4)c3c2C1 [Compound I-207, (12S)-3-[[4-(morpholin-4-yl)cyclohexyl]amino]-8-thia-4,6-diazatricyclo[7.4.0.0[2,7]]trideca-1(9),2(7),3,5-tetraene-12-carboxamide] | 1000 to 5000 | 1000 to 5000 | < 5000
20 | CN(C)[C@H]1CC[C@H](Oc2ncnc3sc4c(c23)[C@@H](CC(N)=O)CC4)CC1 [Compound I-43, 2-[(3R)-12-[[4-(dimethylamino)cyclohexyl]oxy]-7-thia-9,11-diazatricyclo[6.4.0.0[2,6]]dodeca-1(8),2(6),9,11-tetraen-3-yl]acetamide] | 500 to 1000 | 500 to 1000 | < 5000
21 | CN(C)[C@H]1CC[C@H](Oc2ncnc3sc4c(c23)[C@@H](C[C@@H](O)C(F)(F)F)CC4)CC1 [Compound I-68, (R)-3-((R)-4-(((1r,4R)-4-(dimethylamino)cyclohexyl)oxy)-6,7-dihydro-5H-cyclopenta[4,5]thieno[2,3-d]pyrimidin-5-yl)-1,1,1-trifluoropropan-2-ol] | ≤ 500 | 500 to 1000 | < 5000
